The subject of test [1] is BaF/3 cells transfected with the EGFR (BaF/3-EGFR). Kind of test: Activatory ligand stimulated mitogenesis assay. The class given is cell-based. The settings on record: for potentiation of mitogenesis of BaF/3-EGFR cells: titrating concentrations of variant ligand, preliminary results, data not shown. As to the method:
BaF/3 cells transfected with the EGFR (BaF/3-EGFR; Walker et al, Growth Factors 16: 53-67, 1998) are washed three times to remove residual IL-3 and resuspended in RPMI 1640+10% FCS. Cells are then seeded into 96 well plates using a Biomek 2000 (Beckman) at 2×10^4 cells per 200 microlitres and incubated for 4 h at 37 C in 10% CO2. To determine the efficacy of this system with a positive control, cells are first grown with titrating concentrations of activatory ligand EGF alone, to determine the minimum amount of ligand required to achieve maximal or sub-maximal receptor-mediated mitogenesis for these cells. […] Titrating concentrations of ErbB variant ligands are added to the cells to test their mitogenic potential. In a similar manner, BaF/3 or different cells expressing a range of ErbB receptors, rendering them mitogenically responsive to ErbB ligand stimulation, are used to test these and other variant ligands for activatory ligand stimulated mitogenesis (exemplified in Harari et. al., 1999).

Test [2] concerns soluble ErbB1 (soluble EGFR amino acids 1-501 and 1-621). In words: BIAcore receptor binding assay, immobilized soluble EGFR. As to conditions: peptide up to 10 uM; BIAcore 3000, CM-5 chip; data not shown. As to the method:
(§1) Biosensor analyses were performed using a BIAcore™ 3000. A CM-5 (research grade) sensor chip was immobilized with soluble EGFR (amino acids 1-501), soluble EGFR (amino acids 1-621) and soluble ErbB2 (amino acids 1-509) on flowcells 2, 3 and 4, respectively. Immobilizations were performed using amine coupling chemistry in 10 mM Sodium Acetate at pH 4.2. Varying concentrations (1.25 μM, 2.5 μM, 5 μM and 10 μM) of peptides were injected (30 μl) over the sensor surfaces in HBS running buffer (10 mM HEPES, 3.4 mM EDTA, 0.15M NaCl, 0.005% Tween 20, pH 7.4) at a flow rate of 5 μl/min. The surfaces were then regenerated by injecting 10 μl of 10 mM NaOH at a flow rate of 20 μl/min. The resulting sensor curves were subtracted against the blank channel (Flowcell 1) to yield the specific response.
(In general: SPR reads the build-up and loss of mass on a sensor chip optically.)

The target in test [3] is T1, soluble ErbB2 (amino acids 1-509) (Homo sapiens, UniProt P04626).
T1 construct: soluble ErbB2 (amino acids 1-509)
Kind of test: BIAcore receptor binding assay, immobilized soluble ErbB2. The settings on record: peptide up to 10 uM; BIAcore 3000, CM-5 chip; data not shown. As to the method: as §1

In test [4] the test system is Betacellulin. In words: BIAcore ligand-ligand interaction, immobilized Betacellulin. The class given is binding, human or bovine. As to conditions: peptide 0.3-10 μM (in some cases 50 μM); BIAcore 3000, blank channel subtracted; FIG. 6. Here is the method:
Biosensor analyses were performed using a BIAcore™ 3000. A CM-5 (research grade) sensor chip was immobilized with recombinant human or bovine EGF, TGF alpha and Betacellulin on flowcells 2, 3 and 4, respectively. Immobilizations were performed using amine coupling chemistry in 10 mM Sodium Acetate at pH 4.2. Varying concentrations (0.3 μM, 0.6 μM, 1.25 μM, 2.5 μM, 5 μM, 10 μM [and in some cases 50 μM]) of hNRG2(1-32), mEGF(1-32) & hEGF(1-32) were injected (30 μl) over the sensor surfaces in HBS running buffer (10 mM HEPES, 3.4 mM EDTA, 0.15M NaCl, 0.005% Tween 20, pH 7.4) at a flow rate of 5 μl/min. The surfaces were then regenerated by injecting 10 μl of 10 mM NaOH at a flow rate of 20 μl/min. The resulting sensor curves were subtracted against the blank channel (Flowcell 1) to yield the specific response.

“Also recorded” adds a separate entry of the source. No end group written: not given here.

For “EGF: activatory ligand EGF purified from mouse salivary glands, positive control (NSYPGCPSSYDGYCLNGGVCMHIESLDSYTCNCVIGYSGDRCQTRDLRWWELR; Epidermal growth factor; UniProt P01132 977-1029, looked up) [reference compound]”, the “mitogenic response of BaF/3-EGFR cells” value in test [1] (positive control at a concentration of approximately 200 μM) is reported as “sub-maximal to maximal mitogenic response”.

As to “GHARKCNETAKSYCVNGGVCYYIEGINQLSCK-OH (also: air-oxidised refolding, disulfide pairing not given here) [hNRG2(1-32)]”, the “potentiation of mitogenesis of BaF/3-EGFR cells” value in test [1] is listed as “do not potentiate mitogenesis”. The “binding to immobilized soluble ErbB1” value in test [2] was “failed to demonstrate measurable binding”. Besides, the “binding to immobilized soluble ErbB2” value in test [3] was “failed to demonstrate measurable binding”. The “binding to immobilized Betacellulin” value in test [4] is on record as “weak binding; also recorded: low affinity interaction”.

Turning to “NSDSECPLSHDGYCLHDGVCMYIEALDKYACK-OH (not fully specified; C-terminal free acid) [hEGF(1-32)]”, the “binding to immobilized Betacellulin” value in test [4] was “no binding”.

As to “NSYPGCPSSYDGYCLNGGVCMHIESLDSYTCK-OH (C-terminal free acid) [mEGF(1-32)]”, the “potentiation of mitogenesis of BaF/3-EGFR cells” value in test [1] is “do not potentiate mitogenesis”. The “binding to immobilized soluble ErbB1” value in test [2] was “failed to demonstrate measurable binding”. For the same substance, the “binding to immobilized soluble ErbB2” value in test [3] is on record as “failed to demonstrate measurable binding”. Further, the “binding to immobilized Betacellulin” value in test [4] is “weak binding; also recorded: low affinity interaction”.
